Patent US10201175B2, “N-acylated 1-aminocycloalkyl carboxylic acids as food flavouring compounds” (Givaudan S.A., priority 2012, dated 2019)

How the values were obtained:
[1] = Expert taster evaluation, test in fish sauce; conditions: 0.5 ppm in fish sauce; salt level in application 0.3-1.0%
Method: (§1) Samples were prepared and evaluated by expert tasters. Tasters were asked to describe the samples focusing on authentic taste, mouthfeel, fullness, salivation, salty-ness, umami, sweetness, juiciness, richness, long lastingness and fattiness.
(§2) Salt level pure product between 5-40%
(§3) Salt level in application 0.3-1.0%

[2] = Expert taster evaluation, test in cheese sauce; conditions: 0.5 ppm in cheese sauce, 5% fat, 1.6% salt
Method: as §1
Cheese sauce: 5% fat 1.6% salt

[3] = Expert taster evaluation, test in cheese (spreadable cheese ERU); conditions: 0.5 ppm in spreadable cheese ERU
Method: as §1

[4] = Expert taster evaluation, test on Kikkoman soy sauce low salt; conditions: 0.5 ppm in Kikkoman soy sauce low salt; salt level in application 0.3-1.0%
Method: as §1
Test on Kikkoman soy sauce low salt
as §2, §3

[5] = Expert taster evaluation, test in jus and fonds; conditions: 40 ppb in beef jus
Method: as §1

[6] = Expert taster evaluation, test in mayonnaise; conditions: 0.5 ppm in low fat mayonnaise (27% fat)
Method: as §1
Fat levels between 10-80%
Low fat Mayonnaise (27% Fat)

[7] = Expert taster evaluation, test in dressings; conditions: 0.5 ppm in low fat salad dressing (13.6% fat)
Method: as §1
Low fat salad dressing (13.6% Fat)

[8] = Expert taster evaluation, test in soups and bouillons; conditions: 0.7% salt, 0.5% fat
Method: as §1
Test in Soups and Bouillons
Standard Chicken bouillon base

SMILES: CCCCCCCC/C=C\CCCCCCCC(=O)NC1(C(=O)O)CC1 [C18:1-ACCA, N-oleoyl 1-amino-cyclopropyl carboxylic acid]
- taste description by expert tasters [1]: Strong saltiness lingering, strong body mouthfeel
- taste description by expert tasters [2]: Strong umami, cheese bite, expanding
- taste description by expert tasters [3]: Strong umami, lingering cheese bite
- taste description by expert tasters [4]: Strong upfront saltiness lingering, very strong saltiness
- taste description by expert tasters [5]: more salty, fatty, total profile is enhanced
- taste description by expert tasters [6]: Nice balanced, full mouthfeel, increased eggyness
- taste description by expert tasters [7]: Increased mouthfeel body less acidic
- taste description by expert tasters ([8]; 0.2 ppm in standard chicken bouillon base): Saltier, Stronger and more umami
- taste description by expert tasters ([8]; 0.5 ppm in standard chicken bouillon base): More body and fatty notes, salivating and good aftertaste
